Data reported in US20140005163A1 (NOVARTIS AG, priority 2010, published 2014).

Experiments:
Format in all cases: cell-based
[1] = tested on: PKB Ser473 phosphorylation in Rat1-myr-HA-p110 alpha cells; assay: Reverse protein array assay, PKB Ser473 phosphorylation in Rat1-myr-p110 alpha cells; settings: 0.5 h, pAkt Ser473, 30 minutes compound incubation, read-out: p-PKB IC50
Procedure, shortened: (§1)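 Cells: Rat1-myr-HA-p110 alpha/beta/delta, seeded ≥20 h. Lysis on ice 10 min; reverse-phase protein array, 4 lysate dilutions; fluorescence read, relative intensity.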

[2] = tested on: PKB Ser473 phosphorylation in Rat1-myr-HA-p110 beta cells; assay: Reverse protein array assay, PKB Ser473 phosphorylation in Rat1-myr-p110 beta cells; settings: 0.5 h, pAkt Ser473, 30 minutes incubation, read-out: p-PKB IC50
Procedure, shortened: as §1

[3] = tested on: PKB Ser473 phosphorylation in Rat1-myr-HA-p110 delta cells; assay: Reverse protein array assay, PKB Ser473 phosphorylation in Rat1-myr-p110 delta cells; settings: read-out: p-PKB IC50
Procedure, shortened: as §1

[4] = tested on: S6 Ribosomal Protein phosphorylation Ser235/236 in TSC1 null mouse embryo fibroblast (MEF) cells; assay: Reverse protein array assay, S6 Ribosomal Protein phosphorylation Ser235/236 in TSC1 null MEF cells; settings: 1 h, pS6 ribosomal protein Ser235/236, 60 minutes incubation, read-out: p-S6 IC50
Procedure, shortened: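 TSC1−/− MEFs, seeded and held ≥20 h at 37 °C/5% CO2, were exposed to 8-step serial compound dilutions (0.02% DMSO final; DMSO vehicle control) for 60 min at 37 °C. Cells were then lysed on ice for 10 min and lysates spotted onto reverse protein array chips.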

Row | SMILES | IC50 [1] [nM] | IC50 [2] [nM] | IC50 [3] [nM] | IC50 [4] [nM]
1 | Cc1nn(C)cc1-n1c(=O)n(C)c2cnc3ccc(-c4cncc(OCCF)c4)cc3c21 [Example 181, 1-(1,3-Dimethyl-1H-pyrazol-4-yl)-8-[5-(2-fluoro-ethoxy)-pyridin-3-yl]-3-methyl-1,3-dihydro-imidazo[4,5-c]quinolin-2-one] | 51 | 54 | 62 | 3
2 | CNc1ncc(-c2ccc3ncc4c(c3c2)n(-c2c(C)nn(C)c2C)c(=O)n4C)cn1 [Example 80.2] | 108 | 196 | 323 | 28
3 | COc1ncc(-c2ccc3ncc4c(c3c2)n(-c2cn(C)nc2C)c(=O)n4C)cc1N(C)C(C)=O [Example 62, N-{5-[1-(1,3-Dimethyl-1H-pyrazol-4-yl)-3-methyl-2-oxo-2,3-dihydro-1H-imidazo[4,5-c]quinolin-8-yl]-2-methoxy-pyridin-3-yl}-N-methyl-acetamide] | 469 | 516 | 276 | 98
4 | Cc1nn(C)cc1-n1c(=O)n(C)c2cnc3ccc(-c4cnc(N)c(C(=O)NC(C)C)c4)cc3c21 [Example 225, 2-Amino-5-[1-(1,3-dimethyl-1H-pyrazol-4-yl)-3-methyl-2-oxo-2,3-dihydro-1H-imidazo[4,5-c]quinolin-8-yl]-N-isopropyl-nicotinamide] | 80 | 111 | 69 | 4
5 | Cc1nn(C(C)C)cc1-n1c(=O)n(C)c2cnc3ccc(-c4cnc(N(C)C)nc4)cc3c21 [Example 6.1, 8-(2-Dimethylamino-pyrimidin-5-yl)-1-(1-isopropyl-3-methyl-1H-pyrazol-4-yl)-3-methyl-1,3-dihydro-imidazo[4,5-c]quinolin-2-one] | 61 | 43 | 90 | 33
6 | Cc1nn(C)cc1-n1c(=O)n(C)c2cnc3ccc(-c4ccc(OCC5CC5)nc4)cc3c21 [Example 42, 8-(6-Cyclopropylmethoxy-pyridin-3-yl)-1-(1,3-dimethyl-1H-pyrazol-4-yl)-3-methyl-1,3-dihydro-imidazo[4,5-c]quinolin-2-one] | 36 | 66 | 158 | 3
7 | [2H]C([2H])([2H])Nc1ncc(-c2ccc3ncc4c(c3c2)n(-c2c(C)nn(C)c2C)c(=O)n4C)cc1C(F)(F)F [Example 143, 3-Methyl-8-(6-trideuteromethylamino-5-trifluoromethyl-pyridin-3-yl)-1-(1,3,5-trimethyl-1H-pyrazol-4-yl)-1,3-dihydro-imidazo[4,5-c]quinolin-2-one] | 40 | 57 | 86 | 9
8 | CC(=O)Nc1cc(-c2ccc3ncc4c(c3c2)n(-c2cn(C)nc2C)c(=O)n4C)cnc1Cl [Example 222, N-{2-Chloro-5-[1-(1,3-dimethyl-1H-pyrazol-4-yl)-3-methyl-2-oxo-2,3-dihydro-1H-imidazo[4,5-c]quinolin-8-yl]-pyridin-3-yl}-acetamide] | 55 | 52 | 68 | 4
9 | CCOCc1cc(-c2ccc3ncc4c(c3c2)n(-c2cn(CC)nc2C)c(=O)n4C)cnc1N [Example 166.2, 8-(6-Amino-5-ethoxymethyl-pyridin-3-yl)-1-(1-ethyl-3-methyl-1H-pyrazol-4-yl)-3-methyl-1,3-dihydro-imidazo[4,5-c]quinolin-2-one] | 38 | 86 | 50 | 2.26
10 | CCNc1ncc(-c2ccc3ncc4c(c3c2)n(-c2c(C)nn(C)c2C)c(=O)n4C)cc1C(F)(F)F [Example 145.1, 8-(6-Ethylamino-5-trifluoromethyl-pyridin-3-yl)-3-methyl-1-(1,3,5-trimethyl-1H-pyrazol-4-yl)-1,3-dihydro-imidazo[4,5-c]quinolin-2-one] | 69 | 168 | 280 | 50
11 | Cc1nn(C)cc1-n1c(=O)n(C)c2cnc3ccc(-c4ccc5c(c4)CCN5C)cc3c21 [Example 50, 1-(1,3-Dimethyl-1H-pyrazol-4-yl)-3-methyl-8-(1-methyl-2,3-dihydro-1H-indol-5-yl)-1,3-dihydro-imidazo[4,5-c]quinolin-2-one] | 72 | 119 | 570 | 91
12 | Cc1cc(-n2c(=O)n(C)c3cnc4ccc(-c5cncc(N6CCOCC6)c5)cc4c32)n(C)n1 [Example 175.2, 1-(2,5-Dimethyl-2H-pyrazol-3-yl)-3-methyl-8-(5-morpholin-4-yl-pyridin-3-yl)-1,3-dihydro-imidazo[4,5-c]quinolin-2-one] | 59 | 161 | 360 | 32
13 | COCc1cc(-c2ccc3ncc4c(c3c2)n(-c2cn(C(C)C)nc2C)c(=O)n4C)cnc1N [Example 168.1, 8-(6-Amino-5-methoxymethyl-pyridin-3-yl)-1-(1-isopropyl-3-methyl-1H-pyrazol-4-yl)-3-methyl-1,3-dihydro-imidazo[4,5-c]quinolin-2-one] | 20 | 25 | 50 | 1
14 | Cc1nn(C)cc1-n1c(=O)n(C)c2cnc3ccc(-c4cnc(F)c(N(C)C)c4)cc3c21 [Example 151, 8-(5-Dimethylamino-6-fluoro-pyridin-3-yl)-1-(1,3-dimethyl-1H-pyrazol-4-yl)-3-methyl-1,3-dihydro-imidazo[4,5-c]quinolin-2-one] | 21 | 22 | 40 | 4

The next compounds have a lower IC50 [1] than those just listed; values first:

Row | IC50 [1] [nM] | IC50 [2] [nM] | IC50 [3] [nM] | SMILES | IC50 [4] [nM]
15 | 18 | 103 | 56 | CCn1cc(-n2c(=O)n(C)c3cnc4ccc(-c5cncc(C6(C#N)CCC6)c5)cc4c32)c(C)n1 [Example 221.2, 1-{5-[1-(1-Ethyl-3-methyl-1H-pyrazol-4-yl)-3-methyl-2-oxo-2,3-dihydro-1H-imidazo[4,5-c]quinolin-8-yl]-pyridin-3-yl}-cyclobutanecarbonitrile] | 1
16 | < 5 | 7 | 9 | Cc1nn(C(C)C)cc1-n1c(=O)n(C)c2cnc3ccc(-c4cnc(N)c(C(F)(F)F)c4)cc3c21 [Example 25.4, 8-(6-Amino-5-trifluoromethyl-pyridin-3-yl)-1-(1-isopropyl-3-methyl-1H-pyrazol-4-yl)-3-methyl-1,3-dihydro-imidazo[4,5-c]quinolin-2-one] | < 0.5
17 | < 5 | < 5 | < 5 | CCNc1cc(-c2ccc3ncc4c(c3c2)n(-c2cn(C)nc2Cl)c(=O)n4C)cnc1OC [Example 90.1, 1-(3-Chloro-1-methyl-1H-pyrazol-4-yl)-8-(5-ethylamino-6-methoxy-pyridin-3-yl)-3-methyl-1,3-dihydro-imidazo[4,5-c]quinolin-2-one] | < 0.5
18 | 11 | 24 | 103 | Cc1nn(C)cc1-n1c(=O)n(C)c2cnc3ccc(-c4cnc(Cl)c(NS(C)(=O)=O)c4)cc3c21 [Example 223, N-{2-Chloro-5-[1-(1,3-dimethyl-1H-pyrazol-4-yl)-3-methyl-2-oxo-2,3-dihydro-1H-imidazo[4,5-c]quinolin-8-yl]-pyridin-3-yl}-methanesulfonamide] | 35
19 | < 5 | < 5 | 6 | CNc1ccc(-c2ccc3ncc4c(c3c2)n(-c2cn(C)nc2Cl)c(=O)n4C)cn1 [Example 118.5, 1-(3-Chloro-1-methyl-1H-pyrazol-4-yl)-3-methyl-8-(6-methylamino-pyridin-3-yl)-1,3-dihydro-imidazo[4,5-c]quinolin-2-one] | < 0.5
20 | 13 | 18 | 11 | Cc1nn(C)cc1-n1c(=O)n(C)c2cnc3ccc(-c4cnc(N)nc4)cc3c21 [Example 81.1, 8-(2-Amino-pyrimidin-5-yl)-1-(1,3-dimethyl-1H-pyrazol-4-yl)-3-methyl-1,3-dihydro-imidazo[4,5-c]quinolin-2-one] | 1.69
21 | 6 | < 5 | 12 | CNC(=O)c1ccc(-c2ccc3ncc4c(c3c2)n(-c2cn(C)nc2Cl)c(=O)n4C)cc1 [Example 43.2, 4-[1-(3-Chloro-1-methyl-1H-pyrazol-4-yl)-3-methyl-2-oxo-2,3-dihydro-1H-imidazol[4,5-c]quinolin-8-yl]-N-methyl-benzamide] | < 0.5
22 | < 5 | < 5 | 7 | COc1ncc(-c2ccc3ncc4c(c3c2)n(-c2cn(C)nc2Cl)c(=O)n4C)cc1CO [Example 200, 1-(3-Chloro-1-methyl-1H-pyrazol-4-yl)-8-(5-hydroxymethyl-6-methoxy-pyridin-3-yl)-3-methyl-1,3-dihydro-imidazo[4,5-c]quinolin-2-one] | < 0.5
23 | 12 | 19 | 10 | COCc1cc(-c2ccc3ncc4c(c3c2)n(-c2cn(C)nc2Cl)c(=O)n4C)cnc1OC [Example 201, 1-(3-Chloro-1-methyl-1H-pyrazol-4-yl)-8-(6-methoxy-5-methoxymethyl-pyridin-3-yl)-3-methyl-1,3-dihydro-imidazo[4,5-c]quinolin-2-one] | 1
